According to the supplement of paper PMC10307832:

Experiments:
Assay in all cases: relative viability (nuclei count vs DMSO), 5 days (fraction); higher = more cells survive
[1] = tested on: Calu-6
Summary of the method: (§1)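 Nuclei were stained with Hoechst during a one-step fixation (final 0.05% Triton X-100, 1% formaldehyde, 1 ug/ml Hoechst) carried out 5 days after dosing, then counted on 4× images. The cells, lung cancer lines in 1536-well plates, had been dosed by pin tool the day after seeding with one drug alone or a fixed anchor-drug dose plus five library-drug doses (not always all listed) in √10 steps. Relative viability is the nuclei count in treated wells divided by that in vehicle wells, and each value is the median of duplicate plates.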

[2] = tested on: RERF-LC-KJ
Summary of the method: as §1

[3] = tested on: NCI-H838
Summary of the method: as §1

[4] = tested on: PC-3 [JPC-3]
Summary of the method: as §1

[5] = tested on: NCI-H520
Summary of the method: as §1

[6] = tested on: NCI-H1651
Summary of the method: as §1

[7] = tested on: A549
Summary of the method: as §1

[8] = tested on: NCI-H650
Summary of the method: as §1

[9] = tested on: NCI-H1944
Summary of the method: as §1

[10] = tested on: IA-LM
Summary of the method: as §1

[11] = tested on: EBC-1
Summary of the method: as §1

[12] = tested on: NCI-H1299
Summary of the method: as §1

[13] = tested on: NCI-H1703
Summary of the method: as §1

How did the relative viability ([1]; first compound 0.04 µM) turn out when `Cc1sc2c(c1C)C(c1ccc(Cl)cc1)=N[C@@H](CC(=O)OC(C)(C)C)c1nnc(C)n1-2` [JQ1] + Cc1nc(NC(=O)N2CCC[C@H]2C(N)=O)sc1-c1ccnc(C(C)(C)C(F)(F)F)c1 [Alpelisib] (partner 2 µM) was run?
Its relative viability is 0.955.

And the relative viability ([1]; first compound 0.1265 µM)?
Its relative viability is 0.815.

And the relative viability ([1]; first compound 0.4 µM)?
Its relative viability is 0.818.

What about the relative viability ([1]; first compound 1.265 µM) of the same compound?
Its relative viability is 0.589.

And the relative viability ([1]; first compound 4 µM)?
Its relative viability is 0.4.

What about the relative viability ([2]; first compound 0.04 µM) of the same compound?
The relative viability was 0.806.

And the relative viability ([2]; first compound 0.1265 µM)?
Its relative viability is 0.925.

And the relative viability ([2]; first compound 0.4 µM)?
The relative viability was 0.793.

What about the relative viability ([2]; first compound 1.265 µM) of the same compound?
The relative viability was 0.743.

And the relative viability ([2]; first compound 4 µM)?
The relative viability was 0.427.

What about the relative viability ([3]; first compound 0.04 µM) of the same compound?
Its relative viability is 1.03.

What about the relative viability ([3]; first compound 0.1265 µM) of the same compound?
The relative viability was 0.698.

What about the relative viability ([3]; first compound 0.4 µM) of the same compound?
Its relative viability is 0.882.

And the relative viability ([3]; first compound 1.265 µM)?
Its relative viability is 0.291.

And the relative viability ([3]; first compound 4 µM)?
The relative viability was 0.263.

What about the relative viability ([4]; first compound 0.04 µM) of the same compound?
Its relative viability is 1.06.

What about the relative viability ([4]; first compound 0.1265 µM) of the same compound?
Its relative viability is 1.03.

What about the relative viability ([4]; first compound 0.4 µM) of the same compound?
The relative viability was 1.09.

And the relative viability ([4]; first compound 1.265 µM)?
The relative viability was 0.775.

And the relative viability ([4]; first compound 4 µM)?
The relative viability was 0.608.

What about the relative viability ([5]; first compound 0.04 µM) of the same compound?
Its relative viability is 0.798.

And the relative viability ([5]; first compound 0.1265 µM)?
The relative viability was 0.934.

And the relative viability ([5]; first compound 0.4 µM)?
Its relative viability is 0.667.

And the relative viability ([5]; first compound 1.265 µM)?
The relative viability was 0.38.

And the relative viability ([5]; first compound 4 µM)?
The relative viability was 0.268.

And the relative viability ([6]; first compound 0.04 µM)?
The relative viability was 0.882.

What about the relative viability ([6]; first compound 0.1265 µM) of the same compound?
The relative viability was 0.886.

And the relative viability ([6]; first compound 0.4 µM)?
The relative viability was 0.589.

And the relative viability ([6]; first compound 1.265 µM)?
Its relative viability is 0.462.

And the relative viability ([6]; first compound 4 µM)?
The relative viability was 0.411.

And the relative viability ([7]; first compound 0.04 µM)?
Its relative viability is 0.785.

And the relative viability ([7]; first compound 0.1265 µM)?
The relative viability was 0.644.

What about the relative viability ([7]; first compound 0.4 µM) of the same compound?
The relative viability was 0.509.

What about the relative viability ([7]; first compound 1.265 µM) of the same compound?
Its relative viability is 0.401.

And the relative viability ([7]; first compound 4 µM)?
Its relative viability is 0.262.

And the relative viability ([8]; first compound 0.04 µM)?
The relative viability was 1.11.

And the relative viability ([8]; first compound 0.1265 µM)?
The relative viability was 0.715.

And the relative viability ([8]; first compound 0.4 µM)?
The relative viability was 0.707.

What about the relative viability ([8]; first compound 1.265 µM) of the same compound?
The relative viability was 0.377.

What about the relative viability ([8]; first compound 4 µM) of the same compound?
The relative viability was 0.257.

And the relative viability ([9]; first compound 0.04 µM)?
Its relative viability is 0.709.

What about the relative viability ([9]; first compound 0.1265 µM) of the same compound?
Its relative viability is 0.722.

What about the relative viability ([9]; first compound 0.4 µM) of the same compound?
The relative viability was 0.715.

And the relative viability ([9]; first compound 1.265 µM)?
Its relative viability is 0.544.

And the relative viability ([9]; first compound 4 µM)?
The relative viability was 0.397.

What about the relative viability ([10]; first compound 0.04 µM) of the same compound?
The relative viability was 0.772.

What about the relative viability ([10]; first compound 0.1265 µM) of the same compound?
The relative viability was 0.324.

And the relative viability ([10]; first compound 0.4 µM)?
The relative viability was 0.143.

And the relative viability ([10]; first compound 1.265 µM)?
The relative viability was 0.0875.

What about the relative viability ([10]; first compound 4 µM) of the same compound?
The relative viability was 0.103.

And the relative viability ([11]; first compound 0.04 µM)?
Its relative viability is 0.885.

And the relative viability ([11]; first compound 0.1265 µM)?
The relative viability was 0.454.

What about the relative viability ([11]; first compound 0.4 µM) of the same compound?
The relative viability was 0.226.

And the relative viability ([11]; first compound 1.265 µM)?
The relative viability was 0.142.

And the relative viability ([11]; first compound 4 µM)?
The relative viability was 0.149.

What about the relative viability ([12]; first compound 0.04 µM) of the same compound?
The relative viability was 1.02.

What about the relative viability ([12]; first compound 0.1265 µM) of the same compound?
Its relative viability is 0.947.

What about the relative viability ([12]; first compound 0.4 µM) of the same compound?
The relative viability was 0.951.

And the relative viability ([12]; first compound 1.265 µM)?
The relative viability was 0.514.

And the relative viability ([12]; first compound 4 µM)?
The relative viability was 0.353.

What about the relative viability ([13]; first compound 0.04 µM) of the same compound?
The relative viability was 0.315.

And the relative viability ([13]; first compound 0.1265 µM)?
The relative viability was 0.335.

And the relative viability ([13]; first compound 0.4 µM)?
The relative viability was 0.297.

What about the relative viability ([13]; first compound 1.265 µM) of the same compound?
Its relative viability is 0.26.

What about the relative viability ([13]; first compound 4 µM) of the same compound?
Its relative viability is 0.321.
